The nature of assay [1]: Luminescent dose response cell-based high throughput screening assay for inhibitors of the Janus kinase 2 mutant JAK2V617F. [Related pubchem assays: 1446 (Primary screen.), 1521 (Confirmation assay.), 1486 (Counter screen.)]. In kind it is functional.
Assay [2] concerns HEK293. The assay is described as follows: NOD1 signaling inhibitors, primary screen, cell-based, luminescence, uHTS (AID 1578). In kind it is functional. The conditions noted are these: Homo sapiens.
In assay [3] the test system is HEK293. In words: cells. The class given is functional, cell-based. The conditions noted are these: Homo sapiens.
In assay [4] the test system is HEK293. The assay is described as follows: cells. The class given is functional, cell-based. The conditions noted are these: Homo sapiens. This is another data set of the same source.
For assay [5], the system named is HEK293. The assay is described as follows: NOD2 signaling inhibitors in MDP-stimulated cells, cell-based, uHTS, luminescence (AID 2001). The class given is functional. The settings on record: Homo sapiens.
Assay [6] is described as follows: microbe, parasite or virus in culture. In kind it is functional. The settings on record: Mycobacterium tuberculosis.
A short description of assay [7]: THP-1 cell cytotoxicity, dose response, cytotoxicity control for non-replicating M. tuberculosis project (AID 489025). In kind it is functional.
Assay [8] is described as follows: Luminescence Cell-Based Dose Retest to Confirm Inhibitors of Cancer Stem Cells. [Related pubchem assays (depositor defined):AID2717, AID2721]. In kind it is functional. The conditions noted are these: Homo sapiens.
Assay [9] in a line: Vero E6 cell cytotoxicity, dose response, cytotoxicity control for non-replicating M. tuberculosis project, secondary assay (AID 492998). The class given is functional, VeroE6. The conditions noted are these: Vero C1008.
The target of assay [10] is T1, Hexokinase HKDC1 (Homo sapiens, UniProt Q2TB90).
T1 sequence (Q2TB90 whole entry): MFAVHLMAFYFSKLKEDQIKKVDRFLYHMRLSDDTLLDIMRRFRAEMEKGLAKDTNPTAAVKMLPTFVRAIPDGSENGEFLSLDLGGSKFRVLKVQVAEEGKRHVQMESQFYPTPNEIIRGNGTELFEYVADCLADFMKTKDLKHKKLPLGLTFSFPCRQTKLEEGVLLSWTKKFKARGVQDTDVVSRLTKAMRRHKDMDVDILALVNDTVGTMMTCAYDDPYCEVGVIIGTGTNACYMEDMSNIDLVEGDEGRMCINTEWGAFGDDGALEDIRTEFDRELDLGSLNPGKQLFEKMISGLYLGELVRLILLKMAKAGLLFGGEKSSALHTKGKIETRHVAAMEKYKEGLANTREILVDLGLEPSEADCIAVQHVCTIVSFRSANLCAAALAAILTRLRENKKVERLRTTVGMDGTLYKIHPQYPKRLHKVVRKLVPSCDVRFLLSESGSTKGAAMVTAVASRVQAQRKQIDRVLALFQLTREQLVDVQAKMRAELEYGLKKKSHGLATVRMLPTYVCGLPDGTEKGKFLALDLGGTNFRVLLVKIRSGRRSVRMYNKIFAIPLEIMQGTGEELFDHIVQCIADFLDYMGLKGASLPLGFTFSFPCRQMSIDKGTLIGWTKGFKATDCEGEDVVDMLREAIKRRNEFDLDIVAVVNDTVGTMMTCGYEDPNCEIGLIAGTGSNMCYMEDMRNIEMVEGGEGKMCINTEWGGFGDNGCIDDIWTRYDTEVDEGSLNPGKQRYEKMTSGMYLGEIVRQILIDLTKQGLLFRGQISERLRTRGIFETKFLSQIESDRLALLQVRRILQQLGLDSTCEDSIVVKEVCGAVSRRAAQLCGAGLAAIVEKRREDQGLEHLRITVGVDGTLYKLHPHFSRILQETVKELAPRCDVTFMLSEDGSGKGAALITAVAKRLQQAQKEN
The assay is described as follows: HKDC1 hexokinase inhibitors, dose response, biochemical, W721R variant (AID 504729). In kind it is functional.

Assay [11] is described as follows: cells. In kind it is functional.
Assay [12] can be described thus: Shn3 3'UTR reporter inhibitors, dose response, cell-based, Clone20 osteoblasts, firefly luciferase, cherry-picked (AID 624132).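 Further: firefly luciferase luminescence from reporter carrying the Shn3 3'UTR in osteoblasts.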 The class given is functional.
Assay [13] is described as follows: HepG2 cell cytotoxicity, dose response, cytotoxicity control for Shn3 inhibitor project, CellTiter-Glo, cherry-picked (AID 624134). In kind it is functional, cell-based. On the technique in general: Cellular ATP, detected with luciferase, serves as a proxy for viable cell number.
Assay [14] can be described thus: control 3'UTR Renilla luciferase suppression, dose response, counter-screen for Shn3 inhibitor project, cell-based, Clone20-Shn3RL, cherry-picked (AID 624133). The class given is functional. For orientation: A counterscreen serves to expose hits that act by an unwanted route or on another target.
The subject of assay [15] is HEK293. In words: cells. The conditions noted are these: Homo sapiens.
Assay [16] concerns HEK293. In words: cells. The conditions noted are these: Homo sapiens. The source holds these as a separate data set.
Assay [17] deals with T2, SUMO-activating enzyme (Homo sapiens, UniProt Q9UBT2). The assay is described as follows: SUMOylation inhibitor hit validation, confirmation, SUMOylation inhibitor project, biochemical, AlphaScreen (AID 2018). In kind it is functional. In general terms: Bead proximity is the source of the signal in Alpha formats.
In assay [18] the target is Beta-galactosidase (Escherichia coli, UniProt Q8VNN2). In words: PubChem AID 485352. The class given is functional.
Assay [19] concerns the target T2, SUMO-activating enzyme. The assay is described as follows: inhibitors of in vitro SUMOylation cascade, primary screen, biochemical, HTRF, uHTS (AID 2006). In kind it is protein-complex assay.
For assay [20], the target named is T3, Type-1 angiotensin II receptor (Homo sapiens, UniProt P30556).
T3 sequence (P30556 whole entry): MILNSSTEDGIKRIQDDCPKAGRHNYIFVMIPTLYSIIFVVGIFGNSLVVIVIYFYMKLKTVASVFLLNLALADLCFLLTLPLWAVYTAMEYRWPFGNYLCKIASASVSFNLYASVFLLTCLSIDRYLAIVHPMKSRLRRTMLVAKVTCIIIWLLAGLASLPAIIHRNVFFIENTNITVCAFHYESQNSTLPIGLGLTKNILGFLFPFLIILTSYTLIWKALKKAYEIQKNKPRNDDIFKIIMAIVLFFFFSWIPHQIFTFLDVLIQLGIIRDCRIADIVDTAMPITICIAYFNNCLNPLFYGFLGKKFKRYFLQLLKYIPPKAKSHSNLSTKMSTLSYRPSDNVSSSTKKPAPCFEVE
In words: AT1 receptor antagonists, dose response, selectivity assay for APJ receptor antagonist project, cell-based, uHTS hits (AID 463214).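 Further: antagonist potency against angiotensin II stimulated AT1 response.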 In kind it is functional.

Assay [21] has as its target T4, Mannose-6-phosphate isomerase (Homo sapiens, UniProt P34949).
T4 sequence (P34949 whole entry): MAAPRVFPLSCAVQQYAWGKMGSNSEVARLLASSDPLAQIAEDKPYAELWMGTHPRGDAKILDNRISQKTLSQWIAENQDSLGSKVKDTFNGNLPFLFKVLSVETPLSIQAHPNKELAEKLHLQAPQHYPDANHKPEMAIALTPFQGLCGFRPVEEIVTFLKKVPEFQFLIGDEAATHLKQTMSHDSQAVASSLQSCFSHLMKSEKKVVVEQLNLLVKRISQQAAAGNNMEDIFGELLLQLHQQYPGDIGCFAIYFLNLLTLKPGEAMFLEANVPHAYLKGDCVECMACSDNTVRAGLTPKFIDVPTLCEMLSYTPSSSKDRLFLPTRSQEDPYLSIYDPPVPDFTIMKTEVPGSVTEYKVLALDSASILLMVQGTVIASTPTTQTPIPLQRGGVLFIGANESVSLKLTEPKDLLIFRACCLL
In words: human PMI inhibitors, high substrate, primary screen, biochemical, fluorescence intensity, high mannose 6-phosphate (AID 1220).

For assay [22], the target named is T5, Sentrin-specific protease 8 (Homo sapiens, UniProt Q96LD8).
T5 sequence (Q96LD8 whole entry): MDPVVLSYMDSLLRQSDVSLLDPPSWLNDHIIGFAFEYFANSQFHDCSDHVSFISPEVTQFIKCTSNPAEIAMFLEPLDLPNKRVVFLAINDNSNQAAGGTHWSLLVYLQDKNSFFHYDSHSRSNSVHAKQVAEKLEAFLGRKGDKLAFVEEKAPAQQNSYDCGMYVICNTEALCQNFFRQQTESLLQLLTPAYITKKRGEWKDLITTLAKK
In kind it is functional.

The target of assay [23] is T5, Sentrin-specific protease 8. In kind it is functional. The source holds these as a separate data set.
Assay [24] in a line: insulin promoter down-regulators in MIN6 cells, imaging, high-content screening, mouse beta cells (AID 1628). The class given is functional.
The nature of assay [25]: cytotoxicity in MIN6 insulinoma cells, dose response, cytotoxicity control, cell-based, mouse insulinoma (AID 2122).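 Further: confirmatory high-throughput counterscreen run to flag cytotoxic compounds; mouse MIN-6 beta cells carrying an insulin promoter eGFP reporter.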 The class given is functional.
The nature of assay [26]: inhibitors of intracellular T. cruzi replication, confirmation, NIH3T3 host cells, beta-gal luminescence (AID 2044).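 Further: intracellular parasites grown in NIH/3T3 mouse fibroblasts as host cells; luminescent beta-galactosidase reporter signal from transgenic T. cruzi replicating inside host cells; inhibitors lower the luminescence signal.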 In kind it is functional, cell-based.
A short description of assay [27]: cytotoxicity toward NIH3T3 fibroblasts, dose response, counter-screen, cell-based, ATP luminescence, mouse fibroblasts (AID 2010).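 Further: cells exposed to compound for about 90 hours before reading.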 In kind it is functional.
The test system of assay [28] is Vero. In words: cells. In kind it is functional. The settings on record: Chlorocebus sabaeus.
The subject of assay [29] is Vero. The assay is described as follows: cells. The settings on record: Chlorocebus sabaeus. In kind it is functional, cell-based.
Assay [30] in a line: HEp-2 cell cytotoxicity, dose response, cytotoxicity control for RSV inhibitor project, HTS (AID 2410). In kind it is functional. The settings on record: human respiratory syncytial virus.
A short description of assay [31]: cells.

The results in this text go back to ChEMBL document CHEMBL1201862, “PubChem BioAssay data set” (2004).

Calls of active or inactive are those of the source.

T2 sequence (Q9UBE0 whole entry): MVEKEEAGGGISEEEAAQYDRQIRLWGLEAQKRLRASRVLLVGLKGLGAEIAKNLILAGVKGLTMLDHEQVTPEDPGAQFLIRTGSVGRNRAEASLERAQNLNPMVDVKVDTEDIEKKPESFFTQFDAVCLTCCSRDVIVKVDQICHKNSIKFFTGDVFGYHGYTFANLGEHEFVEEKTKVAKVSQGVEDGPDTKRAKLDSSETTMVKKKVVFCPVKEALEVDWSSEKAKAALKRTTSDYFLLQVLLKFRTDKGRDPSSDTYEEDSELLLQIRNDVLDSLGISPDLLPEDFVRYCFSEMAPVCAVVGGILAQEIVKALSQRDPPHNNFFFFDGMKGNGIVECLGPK
T2 sequence (Q9UBT2 whole entry): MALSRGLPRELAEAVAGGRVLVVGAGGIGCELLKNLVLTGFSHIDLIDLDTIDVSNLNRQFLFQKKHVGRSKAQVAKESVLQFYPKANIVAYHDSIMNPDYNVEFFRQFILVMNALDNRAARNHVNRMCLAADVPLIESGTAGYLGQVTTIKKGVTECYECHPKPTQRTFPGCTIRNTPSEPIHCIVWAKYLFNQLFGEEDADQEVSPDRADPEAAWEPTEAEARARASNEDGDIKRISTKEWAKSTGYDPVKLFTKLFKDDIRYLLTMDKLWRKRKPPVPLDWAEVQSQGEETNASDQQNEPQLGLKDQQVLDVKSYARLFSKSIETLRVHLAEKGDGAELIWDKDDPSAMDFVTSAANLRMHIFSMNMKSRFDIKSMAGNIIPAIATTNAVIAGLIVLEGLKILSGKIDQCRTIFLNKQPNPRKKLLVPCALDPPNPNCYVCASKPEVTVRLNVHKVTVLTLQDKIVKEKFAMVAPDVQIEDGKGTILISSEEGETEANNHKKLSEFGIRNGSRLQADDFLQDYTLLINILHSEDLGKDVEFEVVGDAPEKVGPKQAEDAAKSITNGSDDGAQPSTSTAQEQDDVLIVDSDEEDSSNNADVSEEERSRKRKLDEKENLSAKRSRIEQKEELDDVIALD
Chain of Beta-galactosidase (Q8VNN2 whole entry): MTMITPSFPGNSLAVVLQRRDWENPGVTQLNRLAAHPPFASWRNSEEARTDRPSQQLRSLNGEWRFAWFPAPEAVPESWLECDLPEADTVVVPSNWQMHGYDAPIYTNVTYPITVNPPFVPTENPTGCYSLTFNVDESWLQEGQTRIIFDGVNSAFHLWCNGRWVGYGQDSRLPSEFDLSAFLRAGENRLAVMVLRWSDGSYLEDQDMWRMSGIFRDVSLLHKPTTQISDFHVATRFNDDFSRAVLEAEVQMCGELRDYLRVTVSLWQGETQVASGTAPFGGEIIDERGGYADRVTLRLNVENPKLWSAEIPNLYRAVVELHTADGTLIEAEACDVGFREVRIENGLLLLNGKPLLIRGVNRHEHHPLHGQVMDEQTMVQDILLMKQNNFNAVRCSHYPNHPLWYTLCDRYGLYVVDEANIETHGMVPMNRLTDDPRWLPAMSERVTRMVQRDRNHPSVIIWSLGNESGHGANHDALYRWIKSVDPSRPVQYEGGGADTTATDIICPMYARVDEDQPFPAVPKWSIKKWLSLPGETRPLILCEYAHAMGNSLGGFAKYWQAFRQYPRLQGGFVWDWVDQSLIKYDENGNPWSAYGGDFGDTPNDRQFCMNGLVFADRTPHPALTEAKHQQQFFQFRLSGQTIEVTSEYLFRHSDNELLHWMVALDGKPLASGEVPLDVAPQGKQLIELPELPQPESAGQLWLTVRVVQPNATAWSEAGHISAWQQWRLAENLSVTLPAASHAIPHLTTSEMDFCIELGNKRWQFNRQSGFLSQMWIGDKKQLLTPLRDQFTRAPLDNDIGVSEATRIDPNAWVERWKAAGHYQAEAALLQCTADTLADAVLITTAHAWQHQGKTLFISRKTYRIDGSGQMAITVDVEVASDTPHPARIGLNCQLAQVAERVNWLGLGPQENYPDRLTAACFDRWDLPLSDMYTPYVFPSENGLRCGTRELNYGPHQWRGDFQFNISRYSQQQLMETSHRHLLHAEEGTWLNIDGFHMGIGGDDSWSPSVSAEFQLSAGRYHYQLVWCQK

For `Cc1nc([N+](=O)[O-])c(Br)n1CC(=O)c1ccc2ccccc2c1`, the concentration for half-maximal inhibition (IC50) (commonly the midpoint of a concentration-inhibition curve) is 1.88 µM (active) in assay [1]; 3.46 µM (active) in assay [3]; > 20 µM (inactive) in [4]; 3.77 µM (active) in [5]; 20.6 µM (inactive) in [10]; 10.1 µM (active) in [11]. Also, the EC50 (commonly the concentration that produces a half-maximal response) in [2] is 17.6 µM (active). Further, the CC50 in assay [6] was 16 µM (active); in assay [7], 17.4 µM (active); in [9], 16.3 µM (active). For the same molecule, the AC50 (in general, the midpoint of the concentration-response curve, whichever way the signal moves) in [8] is 4.44 µM (active); in assay [12], 10.7 µM (active); in [13], 63.7 µM (active); in assay [14], 3.22 µM (active).

As to `CC(C)(C)N1C(=O)[C@H]2[C@@H](c3ccc(Br)cc3)N3C(=O)N(c4ccccc4)C(=O)[C@@]3(Cc3ccccc3)[C@H]2C1=O`, the EC50 in assay [15] and in [16] was > 59.6 µM (inactive) each time.

Turning to `O=C1Nc2ccc([N+](=O)[O-])cc2C1=Nc1cccc(CO)c1`, the IC50 in assay [17] is 5.51 µM (active); in [19] it was 18.7 µM (active); in assay [20], > 40 µM (not active); in assay [21], 12.4 µM (active); in assay [22] it was 8.6 µM (active); in [23], 7.06 µM (active). The EC50 in assay [18] is > 40 µM (inactive).

Regarding `Cc1ccc(OCC(O)Cn2c(=N)n(CCN3CCCCC3)c3ccccc32)cc1` (centres undefined), the values for the IC50 in [24] and in assay [25] were 1.28 µM (active) and 3.24 µM (active), respectively. Further, the EC50 is 3.83 µM (active) in [26] and > 60 µM (not active) in assay [27]. Besides, the CC50 in assay [28] was 13.8 µM (active).

For the molecule `Cc1cc(NC(=O)CCc2ccc(S(=O)(=O)N3CCOCC3)cc2)n(-c2ccccc2)n1`, the figures for the IC50 in assay [24] and in assay [25] were 2 µM (active) and 1.53 µM (active), respectively.

With `Oc1nc(SCc2nc(O)c3cnn(-c4ccccc4)c3n2)nc2ccccc12`, the IC50 in [29] was 1.08 µM (active).

For `Cc1cc(C(C)(C)C)cc(C)c1CCNC(=O)c1ccc[n+]([O-])c1`, the CC50 in assay [30] was 38.3 µM (active). Moreover, the IC50 in assay [29] is > 25 µM (active); in assay [31], 38 µM (active).
